{"source": "PubChem BioAssay AID726", "about": "(The Scripps Research Institute Molecular Screening Center, 2007)", "biological_target": "5-hydroxytryptamine receptor 1E (Homo sapiens) (UniProt P28566)", "sequence (P28566 whole entry, looked up)": "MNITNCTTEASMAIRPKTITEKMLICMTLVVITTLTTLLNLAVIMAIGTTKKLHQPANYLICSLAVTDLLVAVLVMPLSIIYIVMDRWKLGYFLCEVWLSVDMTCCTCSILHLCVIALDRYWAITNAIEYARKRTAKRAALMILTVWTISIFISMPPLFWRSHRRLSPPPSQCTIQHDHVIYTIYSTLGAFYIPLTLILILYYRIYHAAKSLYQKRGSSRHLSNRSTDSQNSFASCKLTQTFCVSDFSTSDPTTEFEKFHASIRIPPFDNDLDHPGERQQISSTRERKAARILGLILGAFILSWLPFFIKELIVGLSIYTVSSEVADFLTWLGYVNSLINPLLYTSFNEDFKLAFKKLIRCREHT", "experiment": "activation of human 5HT1E serotonin receptor – cell-based, dose response (AID 726)", "conditions": "CHO 5-HT1E/Ga15 NFAT-bla, FRET reporter", "note": "The source made the active and inactive calls.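 How the source made its calls: active means EC50 at or below 10 µM, fitted or read by hand from inhibition at single concentrations; inactive means EC50 above 10 µM.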"}
{"smiles": "CCOC(=O)C1CCN(C(=O)Cc2c(C(=O)O)n(C)c3ccccc23)CC1", "values": [{"measurement": "EC50", "result": "> 50000 nM (inactive)"}]}
{"smiles": "Cc1c(CN2CCN(c3cccc(C(F)(F)F)c3)CC2)c(=O)n(-c2ccccc2)n1C", "values": [{"measurement": "EC50", "result": 1840, "unit": "nM"}]}
{"smiles": "CCOC(=O)c1c(C)nc(-c2ccccc2)nc1NC(=O)CC", "values": [{"measurement": "EC50", "result": "> 50000 nM (inactive)"}]}
{"smiles": "C1=C(c2c[nH]c3ccccc23)CCNC1", "values": [{"measurement": "EC50", "result": 15.7, "unit": "nM"}]}
{"smiles": "CCCCN(CC)Cc1ccc(CNC(=O)Nc2ccc(OC)cc2OC)o1", "values": [{"measurement": "EC50", "result": 1830, "unit": "nM"}]}
{"smiles": "COc1ccc(CN2CCN(c3ccccc3F)CC2)c(OC)c1", "values": [{"measurement": "EC50", "result": "> 50000 nM (inactive)"}]}
{"smiles": "Cc1cccc(N2CCN(C(=O)Cc3c(C(=O)O)[nH]c4ccc(Cl)cc34)CC2)c1C", "values": [{"measurement": "EC50", "result": "> 50000 nM (inactive)"}]}
{"smiles": "Cc1cc(C(C)(C)C)c(O)c(C)c1CC1=NCCN1", "values": [{"measurement": "EC50", "result": 99, "unit": "nM"}]}
{"smiles": "COC(=O)CC(=O)Cc1nc(N)nc(Nc2ccc(C)c(C)c2)n1", "values": [{"measurement": "EC50", "result": "> 50000 nM (inactive)"}]}
{"smiles": "CCCCN(C)CCCNC(=O)Cn1c(=O)sc2ccccc21", "values": [{"measurement": "EC50", "result": 3500, "unit": "nM"}]}
{"smiles": "Cc1cccc(NC(=O)C2CCCN(C(=O)Nc3ccccc3)C2)c1C", "note": "(centres undefined)", "values": [{"measurement": "EC50", "result": "> 50000 nM (inactive)"}]}
{"smiles": "CCc1ccc(NC(=O)Cn2c(SC)nc3ccccc32)cc1", "values": [{"measurement": "EC50", "result": "> 50000 nM (inactive)"}]}
{"smiles": "CN1CCN(/C(=N\\O)c2nonc2N)CC1", "values": [{"measurement": "EC50", "result": 1170, "unit": "nM"}]}
{"smiles": "CCOC(=O)C1=C(C)NC(=O)NC1c1ccc(OCC(=O)Nc2ccccc2)c(OC)c1", "note": "(centres undefined)", "values": [{"measurement": "EC50", "result": "> 50000 nM (inactive)"}]}
{"smiles": "Cc1[nH]c2c(Cl)cccc2c1CCN", "values": [{"measurement": "EC50", "result": 677, "unit": "nM"}]}
{"smiles": "CC(=O)Nc1ccc(S(=O)(=O)N(C)c2ccc(O)cc2)cc1", "values": [{"measurement": "EC50", "result": "> 50000 nM (inactive)"}]}
{"smiles": "CC[C@@H](CO)NC(=O)[C@@H]1C=C2c3cccc4c3c(cn4C)C[C@H]2N(C)C1", "values": [{"measurement": "EC50", "result": 37.5, "unit": "nM"}]}
{"smiles": "CSc1nc2ccc(NC(=O)C3CCCO3)cc2s1", "note": "(centres undefined)", "values": [{"measurement": "EC50", "result": "> 50000 nM (inactive)"}]}
{"smiles": "c1ccc(N2CCN(Cc3cn4cccnc4n3)CC2)cc1", "values": [{"measurement": "EC50", "result": 1070, "unit": "nM"}]}
{"smiles": "Cn1cc(/C(Cc2ccccc2)=N\\O)c2ccccc21", "values": [{"measurement": "EC50", "result": "> 50000 nM (inactive)"}]}
{"smiles": "Cn1c(-c2ccccc2)cnc1SCc1nc2ccccc2c(=O)[nH]1", "values": [{"measurement": "EC50", "result": "> 50000 nM (inactive)"}]}
{"smiles": "O=S(=O)(c1cccc(Cl)c1)N1CCCC1", "values": [{"measurement": "EC50", "result": "> 50000 nM (inactive)"}]}
{"smiles": "CN(C)CCCn1c(NC(=O)C2CCCCC2)nc2ccccc21", "values": [{"measurement": "EC50", "result": 469, "unit": "nM"}]}
{"smiles": "CCOC(=O)c1oc2ccccc2c1NC(=O)c1cc(OC)cc(OC)c1", "values": [{"measurement": "EC50", "result": "> 50000 nM (inactive)"}]}
{"smiles": "NCCc1c[nH]c2ccc(F)cc12", "values": [{"measurement": "EC50", "result": 484, "unit": "nM"}]}
{"smiles": "CCCCc1ccc2[nH]cc(CCN)c2c1", "values": [{"measurement": "EC50", "result": 11.3, "unit": "nM"}]}
{"smiles": "COc1ccc(N(CC(=O)NC2CCCC2)C(=O)Cn2nnc(-c3ccc(C)cc3)n2)cc1OC", "values": [{"measurement": "EC50", "result": "> 50000 nM (inactive)"}]}
{"smiles": "CCOC(=O)C1CCN(C(c2cccnc2)c2c(NC(=O)c3ccco3)sc(C)c2C)CC1", "note": "(centres undefined)", "values": [{"measurement": "EC50", "result": "> 50000 nM (inactive)"}]}
{"smiles": "CN1CCN2c3ccccc3Cc3ccccc3C2C1", "note": "(centres undefined)", "values": [{"measurement": "EC50", "result": 37.8, "unit": "nM"}]}
{"smiles": "CNCCc1c[nH]c2ccccc12", "values": [{"measurement": "EC50", "result": 105, "unit": "nM"}]}
{"smiles": "CCN(CC)c1nc(N2CCOCC2)c(C#N)c2c1CN(C)CC2", "values": [{"measurement": "EC50", "result": 1750, "unit": "nM"}]}
{"smiles": "O=C(Nc1cccc(-c2cn3ccsc3n2)c1)c1ccccc1", "values": [{"measurement": "EC50", "result": "> 50000 nM (inactive)"}]}
{"smiles": "COc1cc(CN2CCN(c3cccc(C)c3C)CC2)cc(OC)c1O", "values": [{"measurement": "EC50", "result": "> 50000 nM (inactive)"}]}
{"smiles": "Cc1[nH]c2ccccc2c1C1=CCNCC1", "values": [{"measurement": "EC50", "result": 194, "unit": "nM"}]}
{"smiles": "Cc1[nH]c2c(C(F)(F)F)cccc2c1CCN", "values": [{"measurement": "EC50", "result": 817, "unit": "nM"}]}
{"smiles": "O=C(COC(=O)CCC1CCCC1)Nc1ccc(Cl)cn1", "values": [{"measurement": "EC50", "result": "> 50000 nM (inactive)"}]}
{"smiles": "O=C(O)C1CCCCC1C(=O)NCCc1c[nH]c2ccccc12", "note": "(centres undefined)", "values": [{"measurement": "EC50", "result": 765, "unit": "nM"}]}
{"smiles": "C[N+]1=C2CCCCCN2C(O)(c2ccccc2)C1", "note": "(centres undefined)", "values": [{"measurement": "EC50", "result": 1330, "unit": "nM"}]}
{"smiles": "Cc1cc(C(C)(C)C)cc(C)c1CC1=NCCN1", "values": [{"measurement": "EC50", "result": 87, "unit": "nM"}]}
{"smiles": "CC1CN(c2nnnn2-c2ccccc2)CC(C)O1", "note": "(centres undefined)", "values": [{"measurement": "EC50", "result": "> 50000 nM (inactive)"}]}
{"smiles": "CN(C)CCOC(=O)c1cn(Cc2ccccc2)c2ccccc12", "values": [{"measurement": "EC50", "result": 493, "unit": "nM"}]}
{"smiles": "Cc1noc(C)c1COc1ccc(C(=O)OC(C)C(=O)Nc2ccc(N3CCOCC3)cc2)cc1", "note": "(centres undefined)", "values": [{"measurement": "EC50", "result": "> 50000 nM (inactive)"}]}
{"smiles": "CCc1nn(C(C)C(=O)NCCN2CCN(c3cccc(C)c3C)CC2)c(=O)c2cc3occc3n12", "note": "(centres undefined)", "values": [{"measurement": "EC50", "result": 2320, "unit": "nM"}]}
{"smiles": "c1ccc2sc(C3CCCNC3)nc2c1", "note": "(centres undefined)", "values": [{"measurement": "EC50", "result": 186, "unit": "nM"}]}
{"smiles": "CC(CCc1ccccc1)NC(=O)CSc1nc(N)cc(N)n1", "note": "(centres undefined)", "values": [{"measurement": "EC50", "result": "> 50000 nM (inactive)"}]}
{"smiles": "CCOC(=O)c1cc2ccc(OC(=O)c3ccco3)cc2oc1=O", "values": [{"measurement": "EC50", "result": 7500, "unit": "nM"}]}
{"smiles": "CN1CC=C(c2c[nH]c3ccccc23)CC1", "values": [{"measurement": "EC50", "result": 6.78, "unit": "nM"}]}
{"smiles": "O=C(NCc1ccccc1)NC1(C(=O)N2CCCC2)CCCCC1", "values": [{"measurement": "EC50", "result": "> 50000 nM (inactive)"}]}
{"smiles": "CCN1CC=C(c2c[nH]c3ccccc23)CC1", "values": [{"measurement": "EC50", "result": 23.9, "unit": "nM"}]}
